# Results from PMC8703450, “New Heterocyclic Combretastatin A-4 Analogs: Synthesis and Biological Activity of Styryl-2(3H)-benzothiazolones” (Pharmaceuticals, 2021).
# Like-named read-outs stand apart in the source and are kept apart here.
# What was measured:
# HT-29 cells = test: MTT cytotoxicity assay, HT-29; format: cell-based, human; conditions: for IC50: Homo sapiens
# Experimental: (§1) All tested compounds were dissolved in DMSO at 25 mM initial concentration and diluted with medium to obtain the working concentrations (0.01 nM–250 µM). Serial drug dilutions were prepared in medium immediately before each experiment. The DMSO working concentration in the medium was […]. For the MTT assay, cells were seeded into 96-well microtitre plates at a density of 1 × 10^4 in 100 µL complete medium per well. They were further incubated for 24 h, followed by treatment with CA-4 analogs up to 72 h. Cell viability was determined using the MTT assay. Ten µL of MTT solution (5 mg/mL) was added to each well and further incubated for 3 h at 37 °C. To dissolve the formazan product, 100 µL/well of 99.5% isopropanol was added. Cell viability was determined by measuring absorbance at 550/630 nm using a DTX880 plate reader (Beckman Coulter, USA). Results, expressed as concentrations that inhibit 20% (IC20), 50% (IC50), and 80% (IC80) of cell growth, were calculated using GraphPad Prism 8.0.1.
# (§2) Table S 3.1. Description of eukaryotic cell lines used for MTT assay. […]
# HT-29 h colon, colorectal Radostina adenocarcinoma Alexandrova 3.1 g/L D-Glucose […]
# colon, colon Kindly provided U/mL streptomycin
# MDA-MB-231 cells = test: MTT cytotoxicity assay, MDA-MB-231; format: cell-based, human
# Experimental: as §1, §2
# (§3) Kindly provided 3.1 g/L Glucose,
# (§4) mammary by Prof. Iana DMEM/F12 with
# (§5) Breast MDA- gland/breast; derived Tsoneva 10% FBS, 100 U/mL
# (§6) MB-231 h from metastatic site: (IBPhBME – penicillin, 100 U/mL
# (§7) pleural effusion; BAS) streptomycin (Lonza). […]
# MCF-7 cells = test: MTT cytotoxicity assay, MCF-7; format: cell-based, human
# Experimental: as §1, §2, §3, §4, §5, §6, §7
# [1] = MTT cytotoxicity assay, BEAS-2B control cells; format: cell-based; conditions: human, read-out: Cytostatic activity (% viable cells)
# Experimental: as §1
# Table S 3.1. Description of eukaryotic cell lines used for MTT assay.
# Panel Cell line Origin Tissue, characteristics Source Culture conditions
# (h) lung carcinoma ATCC, CCL-185 U/mL penicillin, 100
# lung, bronchus; insulin, rhEGF, GA-
# BEAS-2B h epithelial virus ATCC, CRL- 1000, BPE,
# EA.hy926 cells [2] = test: Clonogenic survival assay; format: cell-based, human; conditions: 72 h treatment + 6 days recovery
# Experimental: EA.hy926 cells were seeded at 300 cells/well on a 6-well plate and incubated for 24 h. The cells were treated with different concentrations of test compounds for 72 h. After six additional days of growth in a fresh medium to form visible colonies, cells were washed with phosphate-buffered saline (PBS, pH 7.4) and stained with crystal violet (0.5%, w/v) in 6% glutaraldehyde. After 30 min of incubation, the plates were washed with tap water, dried, photographed, and analyzed using ImageJ [79]. Raw data were normalized to the corresponding DMSO control for each independent experiment. After normalization, statistically significant differences for colony-forming efficiency (CFE) values versus […] were calculated.
# EA.hy926 cells [3] = test: In vitro cell migration (wound-healing) assay; format: cell-based, human; conditions: 24 h
# Experimental: A total of 3 × 10^5 EA.hy926 cells were seeded in a 12-well plate and grown close to the confluence. The cell monolayer was gently scraped with a P200 pipette tip, creating a wound area around 1-mm wide. Cells were washed twice with fresh medium and treated with test compounds diluted in growth media to the corresponding sub-toxic concentrations. Images were acquired at 0 and 24 h following treatment. After incubation for 24 h, the scratch wound width was measured and recorded, and then compared with the initial scratch wound width at 0 h. Using the ImageJ image processing program (ImageJ150-WIN-Java8), the size of the denuded area in pixels was determined at each time point from the digital images.
# EA.hy926 cells [4] = test: Matrigel tube disruption assay; format: cell-based, human; conditions: EA.hy926 on Matrigel, 24 h of treatment
# Experimental: The tube formation assay was performed in 96-well plates coated with 40 µL BD Matrigel™ (basement membrane matrix), following the manufacturer’s instruction (BD Biosciences). A total of 2 × 10^4 EA.hy926 cells was re-suspended in growth medium and added to each well in a final volume of 100 µL. Tube formation was visualized directly using a light microscope. Images were captured using a phase-contrast microscope and quantitation was performed using the WimTube application of the Wimasis online image analysis platform (https://www.wimasis.com/en/products/13/WimTube; accessed on 1 June 2021).
# caspase 3, 8 and 9 = test: Western blot analysis of caspase activation; format: cell-based, human; conditions: EA.hy926, 24 h
# Experimental: A total of 7 × 10^5 cells was seeded in 100-mm dishes. On the next day, cells were treated with the corresponding concentrations of CA-4 and 26Z. After 24 h, treated cells were collected and lysed with lysis buffer (50 mM HEPES, pH 7.7, 250 mM KCl, 10% glycerol, 0.1% Nonidet P-40) containing protease inhibitors (0.4 mM sodium vanadate, 0.5 mM PMSF, 1 mM DTT, […]) by incubation on ice for 30 min and overnight at −20 °C [80]. The concentration of obtained total cell protein lysates was determined by the method of Bradford. Samples were separated on 12% polyacrylamide gels and transferred to nitrocellulose or PVDF membranes. Immunoblotting was performed by blocking in 3.5% non-fat dried milk in PBS, with subsequent incubation for 1 h with primary antibodies for caspase 3 (sc-56053, Santa Cruz Biotechnology), caspase 8 (sc-81656, Santa Cruz Biotechnology), caspase 9 (sc-8355, Santa Cruz Biotechnology), and PARP-1 (sc-8007, Santa Cruz Biotechnology), diluted in PBS containing 0.05% Tween-20. This was followed by incubation with a peroxidase-conjugated secondary antibody m-Igk BP-HRP (sc-516102, Santa Cruz Biotechnology) or a donkey anti-rabbit IgG-HRP (sc-2313, Santa Cruz Biotechnology) for 1 h, and detection of the chemiluminescent signal was accomplished with ECL Select^TM Western Blotting Detection Reagent (Amersham) on X-ray film. β–actin was used as a loading control and mouse monoclonal antibody was used following the manufacturer’s instruction (sc-47778, Santa Cruz Biotechnology).
# [5] = system: rhodamine-labeled α,β-tubulin; test: Ex vivo rhodamine-tubulin polymerization (fluorescence microscopy); conditions: 20 μM, 37 °C, 45 min
# Experimental: TAMRA-Tubulin (TL590M, Cytoskeleton) diluted in GTB buffer (PEM, 10% glycerol, 1 mM GTP) was mixed with unlabeled α,β-tubulin (T240, Cytoskeleton) at a ratio of 1:3 (v/v) to a concentration of 4.0 mg/mL. […] Samples were then centrifuged for 20 min at 30,000× g. The pellets were diluted in 6 µL PEM buffer, containing 1 mM GTP and 0.5% glutaraldehyde, mixed with anti-fade mounting media (P36934, Invitrogen, Eugene, USA), and examined under a confocal LSM 980 Airyscan microscope (Carl Zeiss AG, Oberkochen, Germany).
structure (smiles),measurement,setting,value
"COc1ccc(/C=C\c2cc(OC)c(OC)c(OC)c2)cc1O [CA-4, Combretastatin A-4]",IC50,"HT-29 cells; HT-29 cells, 72 h, MTT, read-out: IC50",2160 ± 230 nM
same,Cytostatic activity (% viable cells),"MDA-MB-231 cells; MDA-MB-231 cells, 72 h, MTT",55%
same,Cytostatic activity (% viable cells),"MCF-7 cells; MCF-7 cells, 72 h, MTT, in the concentration range studied",40%
same,viability at 72 h,[1]; BEAS-2B cells,80%
same,inhibition at 0.001 µM,"EA.hy926 cells [2]; Homo sapiens, EA.hy 926, EA.hy926, 1 nM, read-out: inhibition of endothelial cell colony formation",80%
same,remaining mean wound opened area,"EA.hy926 cells [3]; EA.hy926, 1 nM",24.4%
same,decrease of branching points,EA.hy926 cells [4]; equitoxic IC50 concentration,50%
same,reduction of loop numbers,EA.hy926 cells [4]; equitoxic IC50 concentration,56 ± 3%
same,active forms of effector caspase 3,"caspase 3, 8 and 9; CA-4 IC50 and 26Z IC20",to a lesser extent
same,fluorescent microtubule fiber formation,[5],blocked the process of fiber formation
"COc1cc(/C=C\c2ccc3c(c2)sc(=O)n3C)cc(OC)c1OC [Compound 26Z, (Z)-3-methyl-6-(3,4,5-trimethoxystyryl)-2(3H)-benzothiazolone]",greater cytotoxic effect compared to CA-4,"HT-29 cells; HT-29 cells, 72 h",more than 250 times
same,IC50,"HT-29 cells; HT-29, 72 h",8 ± 1 nM
same,IC50,"MDA-MB-231 cells; Homo sapiens, MDA-MB-231, 72 h",1350 ± 420 nM
same,IC50,"MCF-7 cells; Homo sapiens, MCF7, 72 h",2420 ± 480 nM
same,viability at 72 h,[1],80%
same,decrease in colony number,"EA.hy926 cells [2]; EA.hy926, 250 nM",90%
same,reduction in colony formation,"EA.hy926 cells [2]; EA.hy926, 2.5, 10 and 25 µM",about 100%
same,remaining mean wound opened area,"EA.hy926 cells [3]; EA.hy926, 50 nM",49%
same,reduction in cumulative tube length,"EA.hy926 cells [4]; IC50 concentration, compared with time 0",~ 70%
same,decrease of branching points,EA.hy926 cells [4]; equitoxic IC50 concentration,63%
same,activation of caspases 8 and 9,"caspase 3, 8 and 9",activated
same,active forms of effector caspase 3,"caspase 3, 8 and 9; 26Z at IC50 and IC80",detected
same,active forms of effector caspase 3,"caspase 3, 8 and 9; CA-4 IC50 and 26Z IC20",to a lesser extent
same,fluorescent microtubule fiber formation,[5],blocked the process of fiber formation
